Data from patent US8937039B2, “Peptide-based peroxidase inhibitors and methods of using same” (The Medical College of Wisconsin, Inc., priority 2009, dated 2015).
Residues, ends and D or L forms follow the SMILES beside them.

How the values were obtained:
[1] = test system: facialis arteries from non-treated SCD mice; assay: Vasodilatation of facialis arteries from untreated SCD mice, peptide added ex vivo; set-up: species or system mouse; details: KYC 1.5 μg/ml, 20 min
Description: For vessels treated with KYC (ex-vivo): Using untreated SCD mice, the vessels were isolated/cannulated the same as for the mice treated with KYC in vivo. After the control dose-response curve using acetylcholine (ACh, 10^−7-10^−4 M) and subsequent washing, the vessels were incubated with KYC 1.5 μg/ml for 20 minutes, pre-constricted, and exposed to acetylcholine (ACh, 10^−7-10^−4 M). Vasodilation to papaverine (2.0×10^−4 M) was determined after all treatments to ensure smooth muscle viability. Vasodilation was calculated as a percent of maximal vessel diameter change.

BAEC = assay: MPO-mediated BAEC injury (cell morphology); format: cell-based, bovine; details: MPO 2.5 μg/ml, H2O2 50 μM
Description: MPO-mediated BAEC Injury: BAEC (passage 6-8) were cultured in 24 well plates in DMEM containing 10% FBS until 70-80% confluent. The cells were washed with Hank's balanced salt solution (HBSS) 3 times and incubated with MPO (2.5 μg/mL) and H2O2±KYC at the concentrations indicated in HBSS for 30 min. Finally, BAEC were examined visually and images captured for permanent record using a Nikon Eclipse microscope (Model TS 100) fitted with a Nikon Digital Sight DS-U2 camera and NIS-Elements F 3.0 imaging software. Images are representative of 3 independent experiments.
KYC protects BAEC from MPO-induced injury. […] BAEC in 96 well were treated with 100 μl of HBSS containing MPO (2.5 μg/ml) and H2O2 (50 μM) for 20 min with or without KYC. Changes in cell morphology were recorded as described in a previous report by others.

C57BL/6J mice = assay: Pulmonary retention of Q-dot labeled EMPs (acute lung injury); format: in vivo, mouse; details: pretreatment and treatment with KYC
Description: KYC Inhibits Acute Lung Injury. Inflammation and sepsis induce the release of endothelial cell microparticles (EMPs). Increased production of EMPs is hypothesized to play a causal role in the mechanisms mediating acute lung injury (ALI). To test this hypothesis, the inventors incubated human umbilical vein endothelial cells with PAI-1, which is well-recognized for inducing endothelial cells to generate EMPs. The EMPs were collected by ultracentrifugation, resuspended in physiological saline solution and then labeled with Q-dots. The Q-dot labeled EMPs were counted and then injected into C57BL/6J mice to achieve a final concentration of 100,000 EMPs/mL of blood. Mice were pretreated with phosphate buffered saline (FIG. 6) or KYC and then were injected with Q-dot labeled EMPs alone or Q-dot labeled EMPs plus KYC (FIG. 6).

SCD mice = assay: WBC counts in treated SCD mice (cytometry); format: in vivo, mouse; details: KYC-treated SCD mice
Description: […] vascular function in SCD mice. To determine whether inhibiting MPO improves vascular function and/or reduces inflammation in vivo, SCD mice were treated with KYC for three weeks. […] Such physiological and structural changes are consistent with immunofluorescent studies showing that chlorotyrosine and MPO levels are reduced in the aortas of KYC-treated SCD mice compared with non-treated SCD mice (FIG. 13). High WBC counts are indicative of on-going inflammation in SCD and predictive of future vaso-occlusive events. Accordingly, WBC levels were quantified in the SCD mice using standard cytometry assays.

[2] = test system: OVA-sensitized C57BL/6J mice; assay: OVA-sensitized murine model of asthma (lung histology); format: in vivo, mouse; details: KYC 0.3 mg/kg every other day, 5 treatments
From the text: Murine Model of Experimentally-Induced Asthma. C57BL/6J mice (12-14 wk old) from Jackson Laboratory (Bar Harbor, Me.) were housed in sterile autoclavable microisolation cages and fed standard laboratory mouse chow and water ad libitum. All protocols were approved by the Institutional Animal Care and Use Committee (IACUC) of the Medical College of Wisconsin.
C57BL/6J mice were divided into three groups; a control group (Control), an ovalbumin (OVA)-sensitized group and an OVA-sensitized group treated with KYC. OVA sensitization was achieved using a modification of a protocol previously described by de Siqueira et al^15 (FIG. 1). […] When mice inhale aerosolized OVA, robust allergic responses are routinely observed.
Briefly, on day one, mice were anesthetized (halothane; Halocarbon Laboratories, River Edge, N.J.) and a heat-denatured OVA fragment (˜80 mg, 5×2×2 mm) was implanted subcutaneously in the dorsal aspect of the neck. The incision was closed with stainless steel clips and the mouse was allowed to recover. Implantation of the heat-denatured OVA fragment initiates sensitization. On day fifteen, the implanted mice were exposed to aerosolized OVA (6% in PBS) for 30 minutes every other day for ten days. Twenty-four hours after the last OVA challenge, the mice were deeply anesthetized (halothane), sacrificed by exsanguination and the lungs removed for analysis. […]

## CC(=O)N[C@@H](CCCCN)C(=O)N[C@@H](Cc1ccc(O)cc1)C(=O)N[C@@H](CS)C(N)=O [KYC, N-acetyl Lysyltyrosylcysteine Amide] (Ac-Lys-Tyr-Cys-NH2)
[1]
  Vasodilatation in response to ACh, peptide added to vessel bath (in words): did not increase vasodilatation
BAEC; 50 μM KYC
  BAEC morphology after MPO/H2O2 (in words): almost the same morphology as cultures that were not exposed to MPO
BAEC; 20 min, increasing KYC
  Protection of BAEC from MPO-induced injury (in words): dose-dependently increased protection
C57BL/6J mice
  Pulmonary retention of Q-dot labeled EMPs (in words): dramatically decreases
SCD mice
  Reduction of WBC counts (in words): more than half
[2]; H&E
  Eosinophil infiltration in the lungs (in words): markedly reduce eosinophil infiltration to essentially control levels
[2]; trichrome
  Collagen deposition in the lungs (in words): markedly reduces collagen deposition to control levels
